Measurements: US20080200530A1 (priority 2005, published 2008)

Columns and labels:
[1] = system: DOI-induced hypolocomotion; test: Attenuation of DOI-induced hypolocomotion in rats; format: in vivo, rat; details: 50 μmol/kg p.o., 60 min before DOI 0.3 mg/kg s.c.
Procedure: In this Example, compounds of the invention, such as Compound 1 and Compound 26, were tested for inverse agonist activity by determining whether these compounds could attenuate DOI-induced hypolocomotion in rats in a novel environment. DOI is a potent 5HT2A/5HT2C receptor agonist that crosses the blood-brain barrier.
Male Sprague-Dawley rats (Harlan, San Diego, Calif.) weighing between 200-300 g were used for all tests. Rats were housed three to four per cage. These rats were naive to experimental testing and drug treatment. Rats were handled one to three days before testing to acclimate them to experimental manipulation. Rats were fasted overnight prior to testing.
(R)-DOI HCl (C11H16INO2HCl) was obtained from Sigma-Aldrich, and was dissolved in 0.9% saline. […]
The “Motor Monitor” (Hamilton-Kinder, Poway, Calif.) was used for all activity measurement. This apparatus recorded rears using infrared photobeams. […]
In determining the effects of compounds of the invention on DOI-induced hypoactivity, animals were first injected with vehicle or the compound of the invention (50 μmol/kg) in their home cages. […] 10 min after DOI administration, animals were placed into the activity apparatus and rearing activity was measured for 10 minutes.
Results (total rears over 10 minutes) were analyzed by t-test. […]

5HT2A receptor = target: T1, 5HT2A receptor (Rattus norvegicus, UniProt P14842); test: 125I-LSD displacement from brain sections, autoradiography, cortex; format: binding, Sprague-Dawley rats; details: 1 micromolar compound, 1 nanomolar 125I-LSD
T1 construct: from tissue; host or cells: Sprague-Dawley rat brain, horizontal cryostat sections (cerebral cortex)
T1 sequence (P14842 whole entry): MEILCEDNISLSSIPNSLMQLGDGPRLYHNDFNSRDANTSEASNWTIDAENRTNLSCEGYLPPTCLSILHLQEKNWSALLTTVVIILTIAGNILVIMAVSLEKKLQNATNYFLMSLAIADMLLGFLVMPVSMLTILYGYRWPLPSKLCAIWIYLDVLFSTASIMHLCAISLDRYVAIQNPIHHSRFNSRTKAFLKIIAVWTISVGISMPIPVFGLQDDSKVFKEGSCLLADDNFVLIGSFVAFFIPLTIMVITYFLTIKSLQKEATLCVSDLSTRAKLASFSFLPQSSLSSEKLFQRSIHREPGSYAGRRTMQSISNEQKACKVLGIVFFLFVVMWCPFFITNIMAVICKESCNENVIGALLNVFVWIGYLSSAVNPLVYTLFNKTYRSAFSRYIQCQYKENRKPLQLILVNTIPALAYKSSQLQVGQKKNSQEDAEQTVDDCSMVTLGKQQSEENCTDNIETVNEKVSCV

[2] = system: JC virus infection of human glial cells; details: Elphick et al., Science (2004); cited from earlier work
[3] = target: T2, endogenous human 5-HT2C receptor (Homo sapiens, UniProt P28335)
T2 sequence (P28335 33-458): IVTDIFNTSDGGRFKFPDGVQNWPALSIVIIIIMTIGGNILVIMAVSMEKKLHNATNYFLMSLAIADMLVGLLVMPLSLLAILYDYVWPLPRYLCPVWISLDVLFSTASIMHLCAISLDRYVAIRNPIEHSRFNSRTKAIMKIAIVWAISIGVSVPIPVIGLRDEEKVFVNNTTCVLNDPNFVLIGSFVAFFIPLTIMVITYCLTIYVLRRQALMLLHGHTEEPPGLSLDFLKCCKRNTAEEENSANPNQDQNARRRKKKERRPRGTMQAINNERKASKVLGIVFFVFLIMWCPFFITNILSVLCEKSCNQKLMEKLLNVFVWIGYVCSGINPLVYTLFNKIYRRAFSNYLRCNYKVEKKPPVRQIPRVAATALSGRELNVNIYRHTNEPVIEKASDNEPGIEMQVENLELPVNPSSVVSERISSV

SMILES | effect on DOI-induced hypolocomotion (total rears over 10 minutes) [1] | JC virus infection of human glial cells [2] | further results
COc1ccc(NC(=O)Nc2ccc(Cl)cc2)cc1-c1c(Br)cnn1C [Compound 1, 1-[3-(4-Bromo-2-methyl-2H-pyrazol-3-yl)-4-methoxy-phenyl]-3-(4-chloro-phenyl)-urea] | attenuated DOI-induced hypolocomotion |  | 
COc1ccc(NC(=O)Nc2ccc(Cl)cc2)cc1-c1c(Cl)cnn1C [Compound 26, 1-[3-(4-Chloro-2-methyl-2H-pyrazol-3-yl)-4-methoxy-phenyl]-3-(4-chloro-phenyl)-urea] | attenuated DOI-induced hypolocomotion |  | 
COc1ccc(OC(=O)Nc2cccc(-c3c(Br)cnn3C)c2)cc1 [Compound S-1610, [3-(4-Bromo-2-methyl-2H-pyrazol-3-yl)-phenyl]-carbamic acid 4-methoxy-phenyl ester] |  |  | displacement of 125I-LSD from the cortex (5HT2A) (5HT2A receptor): selectively displace
Cc1nc2sccn2c(=O)c1CCN1CCC(=C(c2ccc(F)cc2)c2ccc(F)cc2)CC1 [Ritanserin] |  | inhibited | 
O=C(c1ccc(F)cc1)C1CCN(CCn2c(=O)[nH]c3ccccc3c2=O)CC1 [ketanserin] |  | inhibited | 
CN1CCN2c3ccccc3Cc3ccccc3C2C1 (stereo not shown) [mianserin] |  |  | inhibition of serotonin-stimulated [35S]GTPγS binding ([3]; 30 μM mianserin): inhibits this response; effect on basal constitutive binding of [35S]GTPγS ([3]; no agonist): partial inverse agonist
